Source: ChEMBL document CHEMBL1201862, “PubChem BioAssay data set” (2004)
Active and inactive are the calls of the source.

Assays:
[1] = target: G-protein coupled receptor 55 (Homo sapiens, UniProt Q9Y2T6); assay: inhibition of LPI-stimulated GPR55 beta-arrestin translocation – imaging, U2OS, beta-arrestin-GFP, LPI agonist, primary screen (AID 2013); type: functional;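 further: antagonist potency measured as reduced agonist-driven arrestin aggregation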
[2] = target: Sphingosine 1-phosphate receptor 2 (Homo sapiens, UniProt O95136); assay: Dose Response Cell Based Assay for Antagonists of the S1P2 Receptor. [Related pubchem assays: 856, 736 ]; type: functional
Chain of Sphingosine 1-phosphate receptor 2 (O95136 whole entry): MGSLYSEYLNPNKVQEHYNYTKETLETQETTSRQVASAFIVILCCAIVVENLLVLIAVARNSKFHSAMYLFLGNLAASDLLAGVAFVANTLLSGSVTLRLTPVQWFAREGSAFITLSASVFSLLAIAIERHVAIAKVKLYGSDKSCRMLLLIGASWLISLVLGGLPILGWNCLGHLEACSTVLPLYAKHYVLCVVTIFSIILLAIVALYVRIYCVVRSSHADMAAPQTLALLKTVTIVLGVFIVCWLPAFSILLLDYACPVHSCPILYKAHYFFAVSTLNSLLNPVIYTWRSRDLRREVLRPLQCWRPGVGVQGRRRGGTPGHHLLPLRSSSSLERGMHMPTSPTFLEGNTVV

[3] = target: Transitional endoplasmic reticulum ATPase (Homo sapiens, UniProt P55072); assay: p97 ATPase inhibitors, dose response, biochemical (AID 1534)
Chain of Transitional endoplasmic reticulum ATPase (P55072 whole entry): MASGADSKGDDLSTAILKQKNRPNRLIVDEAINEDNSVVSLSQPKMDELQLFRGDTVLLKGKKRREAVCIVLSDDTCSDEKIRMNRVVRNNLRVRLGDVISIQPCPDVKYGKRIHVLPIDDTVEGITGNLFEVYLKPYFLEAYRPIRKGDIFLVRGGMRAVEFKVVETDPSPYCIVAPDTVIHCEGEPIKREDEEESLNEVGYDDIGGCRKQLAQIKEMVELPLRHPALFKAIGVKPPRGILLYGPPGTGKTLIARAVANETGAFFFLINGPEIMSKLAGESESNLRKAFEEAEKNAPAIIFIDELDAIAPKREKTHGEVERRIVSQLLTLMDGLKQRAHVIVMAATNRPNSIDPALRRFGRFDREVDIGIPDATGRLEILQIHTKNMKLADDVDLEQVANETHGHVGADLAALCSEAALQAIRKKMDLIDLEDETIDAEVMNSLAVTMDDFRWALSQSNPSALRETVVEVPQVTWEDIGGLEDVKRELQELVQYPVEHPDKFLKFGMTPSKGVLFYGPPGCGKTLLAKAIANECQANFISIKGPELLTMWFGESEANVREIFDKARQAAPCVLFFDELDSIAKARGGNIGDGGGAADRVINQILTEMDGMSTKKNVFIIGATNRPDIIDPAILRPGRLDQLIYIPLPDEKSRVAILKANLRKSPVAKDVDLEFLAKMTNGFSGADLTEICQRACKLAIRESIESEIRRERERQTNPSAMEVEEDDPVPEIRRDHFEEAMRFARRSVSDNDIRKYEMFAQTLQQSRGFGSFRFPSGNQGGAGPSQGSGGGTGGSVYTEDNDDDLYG

[4] = target: Mothers against decapentaplegic homolog 3 (Homo sapiens, UniProt P84022); assay: inhibitors of SMAD-driven TGF-beta signaling – dose response (AID 715); type: functional
Chain of Mothers against decapentaplegic homolog 3 (P84022 whole entry): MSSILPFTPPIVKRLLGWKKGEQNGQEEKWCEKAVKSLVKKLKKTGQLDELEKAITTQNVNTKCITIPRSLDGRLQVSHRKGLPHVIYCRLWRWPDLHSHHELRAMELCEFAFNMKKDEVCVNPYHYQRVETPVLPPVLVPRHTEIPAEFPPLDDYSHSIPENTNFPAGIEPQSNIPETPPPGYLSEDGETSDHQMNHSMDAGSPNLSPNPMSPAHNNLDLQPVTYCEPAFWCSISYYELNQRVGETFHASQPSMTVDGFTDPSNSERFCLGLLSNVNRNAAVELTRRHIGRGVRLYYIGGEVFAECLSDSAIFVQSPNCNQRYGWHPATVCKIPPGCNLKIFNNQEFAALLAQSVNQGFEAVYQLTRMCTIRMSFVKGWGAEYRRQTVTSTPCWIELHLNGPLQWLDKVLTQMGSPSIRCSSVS

[5] = Luminescence Cell-Based Dose Response HTS to Identify Inhibitors of 5'UTR Stem-Loop Driven Prion Protein mRNA Translation in H4 Neuroglioblastoma Cells. [Related pubchem assays: 1827 (Project Summary), 1813 (Primary HTS)]; type: functional
[6] = Intein inhibitors as potential Tuberculosis drugs, a cytotoxicity screen. [Related pubchem assays (depositor defined):AID2221, AID2223, AID434968, AID435010, AID449749, AID449750, AID489010]; type: functional
[7] = target: T1, Heat shock factor protein 1 (Mus musculus, UniProt P38532); assay: decrease of HSF1-responsive luciferase luminescence – cell-based, NIH3T3, dose retest, confirmation (AID 2382); type: functional;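 further: NIH3T3 fibroblasts with HSF1-driven luciferase reporter stressed by proteasome inhibitor MG132; luminescence from HSF1-driven luciferase expression after 8 hours of MG132 stress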
T1 sequence (P38532 whole entry): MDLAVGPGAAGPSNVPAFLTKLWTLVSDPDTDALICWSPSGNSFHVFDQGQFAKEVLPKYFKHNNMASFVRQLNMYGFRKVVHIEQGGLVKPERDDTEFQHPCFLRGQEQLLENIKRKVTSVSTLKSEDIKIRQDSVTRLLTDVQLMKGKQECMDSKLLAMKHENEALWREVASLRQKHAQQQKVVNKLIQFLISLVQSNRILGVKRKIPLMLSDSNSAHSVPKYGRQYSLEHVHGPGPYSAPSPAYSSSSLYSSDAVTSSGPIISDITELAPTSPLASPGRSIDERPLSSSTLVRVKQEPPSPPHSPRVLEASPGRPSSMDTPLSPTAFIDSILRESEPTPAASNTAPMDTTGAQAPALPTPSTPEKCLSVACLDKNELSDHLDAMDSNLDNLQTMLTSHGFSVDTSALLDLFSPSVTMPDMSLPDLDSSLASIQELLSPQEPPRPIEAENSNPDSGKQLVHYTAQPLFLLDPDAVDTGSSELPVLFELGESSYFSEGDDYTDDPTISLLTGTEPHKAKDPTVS

[8] = NIH3T3 cell viability loss – ATP luminescence, mouse fibroblasts, counter-screen, dose response (AID 2010); type: functional, cell-based;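 further: cells exposed to compound for about 90 hours before reading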
Caspase-8 = Caspase-8 (Homo sapiens, UniProt Q14790); assay: inhibitors of purified CASP8 protease – biochemical, Z-IETD-R110 fluorescence, cherry-picked samples, selectivity assay for caspase-6 inhibitor project, dose response (AID 743294)
Chain of Caspase-8 (Q14790 217-374 limits assumed): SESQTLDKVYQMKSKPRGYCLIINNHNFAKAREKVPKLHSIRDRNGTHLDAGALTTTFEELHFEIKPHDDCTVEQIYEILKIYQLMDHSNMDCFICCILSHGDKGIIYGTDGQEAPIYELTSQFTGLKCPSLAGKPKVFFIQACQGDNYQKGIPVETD
Chain of Caspase-8 (Q14790 385-479 limits assumed): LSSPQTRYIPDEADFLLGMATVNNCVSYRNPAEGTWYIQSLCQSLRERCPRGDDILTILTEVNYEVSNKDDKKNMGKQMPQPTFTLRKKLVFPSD

[9] = target: Serine/threonine-protein phosphatase (Candida dubliniensis (strain CD36 / CBS 7987 / NCPF 3949 / NRRLY-17841) (Yeast), UniProt B9W6M3); assay: blockers of CaCl2-induced CDRE-lacZ signaling – S. cerevisiae, luminescence, secondary, dose response (AID 2388); type: functional, cell-based;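 further: yeast reporter cells carrying a calcineurin-responsive lacZ construct stimulated with calcium chloride; luminescent beta-galactosidase reporter signal in whole cells rather than isolated phosphatase activity; potency for inhibition where a drop in reporter signal means calcineurin blockade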
Chain of Serine/threonine-protein phosphatase (B9W6M3 whole entry): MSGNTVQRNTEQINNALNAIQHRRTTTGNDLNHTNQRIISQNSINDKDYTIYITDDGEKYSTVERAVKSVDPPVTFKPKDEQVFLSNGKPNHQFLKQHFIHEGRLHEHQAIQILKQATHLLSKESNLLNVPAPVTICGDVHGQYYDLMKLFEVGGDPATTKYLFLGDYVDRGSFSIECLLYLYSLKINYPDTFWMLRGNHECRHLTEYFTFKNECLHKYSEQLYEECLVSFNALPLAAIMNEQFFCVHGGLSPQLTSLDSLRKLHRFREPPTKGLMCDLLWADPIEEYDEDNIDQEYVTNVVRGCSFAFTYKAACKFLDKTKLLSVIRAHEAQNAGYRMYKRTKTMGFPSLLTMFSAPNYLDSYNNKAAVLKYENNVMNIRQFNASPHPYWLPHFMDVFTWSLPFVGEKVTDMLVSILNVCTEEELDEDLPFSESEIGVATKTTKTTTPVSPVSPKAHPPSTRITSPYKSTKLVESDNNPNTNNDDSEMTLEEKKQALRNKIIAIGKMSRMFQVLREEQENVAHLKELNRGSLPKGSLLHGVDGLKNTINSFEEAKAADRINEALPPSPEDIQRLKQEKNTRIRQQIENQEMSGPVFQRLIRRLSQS

HEK293 = assay: SAR Analysis of small molecule inhibitors of T-cell specific antigen receptor-induced NF-kB activation in a HEK-293T cell line using a luminescence assay - Set 2. [Related pubchem assays (depositor defined):AID435003, AID435012, AID489026]; type: functional, cell-based; details: Homo sapiens
[10] = target: ATP-dependent molecular chaperone HSP82 (Candida albicans (strain WO-1) (Yeast), UniProt C4YTQ8); assay: steroid-induced GRE reporter decrease in yeast – S. cerevisiae, luminescence, Hsp90 inhibitor project, dose response (AID 2400); type: functional, cell-based;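 further: beta-galactosidase luminescence from glucocorticoid response element reporter as proxy for Hsp90 function; inhibitor potency where signal loss means Hsp90 inhibition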
Chain of ATP-dependent molecular chaperone HSP82 (C4YTQ8 whole entry): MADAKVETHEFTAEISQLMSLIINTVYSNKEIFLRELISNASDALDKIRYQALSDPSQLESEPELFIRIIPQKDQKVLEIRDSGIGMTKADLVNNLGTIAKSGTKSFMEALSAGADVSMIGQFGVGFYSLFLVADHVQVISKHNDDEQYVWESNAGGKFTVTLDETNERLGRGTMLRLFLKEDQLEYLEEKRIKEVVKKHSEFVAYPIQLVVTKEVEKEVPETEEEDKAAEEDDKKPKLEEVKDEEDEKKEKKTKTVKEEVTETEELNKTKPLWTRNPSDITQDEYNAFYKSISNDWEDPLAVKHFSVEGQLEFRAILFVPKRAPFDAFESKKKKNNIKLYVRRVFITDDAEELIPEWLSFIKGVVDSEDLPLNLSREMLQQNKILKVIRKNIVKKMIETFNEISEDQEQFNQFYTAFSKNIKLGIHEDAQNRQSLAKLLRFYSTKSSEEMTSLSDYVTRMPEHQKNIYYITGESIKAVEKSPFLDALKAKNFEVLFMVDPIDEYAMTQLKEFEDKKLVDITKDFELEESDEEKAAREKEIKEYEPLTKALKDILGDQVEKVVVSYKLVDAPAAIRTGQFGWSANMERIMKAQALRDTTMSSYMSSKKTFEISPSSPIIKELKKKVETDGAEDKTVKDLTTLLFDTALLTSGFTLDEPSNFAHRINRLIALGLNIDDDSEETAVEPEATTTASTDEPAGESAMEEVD

[11] = NIH-3T3 fibroblast cytotoxicity, dose response, cytotoxicity control, cell-based, fluorescence, Alamar Blue, secondary assay (AID 2327); type: functional;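 further: NIH-3T3 mouse fibroblasts cultured with fluconazole at 8 µg/mL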
cells = type: functional
BJ = assay: BJ-TERT-LT-ST fibroblast viability loss – cell-based, RAS-independent, luminescence, dose response (AID 1935); type: functional; details: Homo sapiens;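 further: BJ fibroblasts immortalized with TERT plus LT and ST oncogenes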
[12] = Vero E6 cell cytotoxicity, dose response, cytotoxicity control for non-replicating M. tuberculosis project, secondary assay (AID 492998); type: functional, VeroE6; details: Vero C1008
[13] = HepG2 cell cytotoxicity, dose response, cytotoxicity control for non-replicating M. tuberculosis project (AID 489018); type: functional; details: Mycobacterium tuberculosis

Chain of G-protein coupled receptor 55 (Q9Y2T6 whole entry): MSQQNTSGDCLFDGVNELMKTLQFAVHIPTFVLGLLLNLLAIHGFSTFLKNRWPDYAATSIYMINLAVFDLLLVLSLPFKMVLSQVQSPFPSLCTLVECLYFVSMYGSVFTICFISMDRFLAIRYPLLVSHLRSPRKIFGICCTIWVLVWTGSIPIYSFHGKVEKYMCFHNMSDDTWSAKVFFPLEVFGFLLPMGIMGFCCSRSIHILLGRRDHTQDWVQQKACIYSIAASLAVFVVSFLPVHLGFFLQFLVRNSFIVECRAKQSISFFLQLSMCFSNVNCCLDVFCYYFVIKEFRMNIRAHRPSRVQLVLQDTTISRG

## Cn1nc(-c2ccc(Cl)cc2)nc2c(=O)n(C)c(=O)nc1-2
[1]
  IC50: 7.35 µM (active)
[2]
  IC50: 0.996 µM (active)
[3]
  IC50: > 50 µM (not active)
[4]
  IC50: 0.039 µM (active)
[5]
  EC50: > 120 µM (not active)
[6]
  CC50: > 40 µM (active)

## SC1=Nc2ccccc2C1
[7]
  EC50: 0.79 µM (active)
[8]
  EC50: 15.8 µM (active)

## NS(=O)(=O)c1ccc(NC(=O)COC(=O)c2ccc([N+](=O)[O-])s2)cc1
Caspase-8
  AC50: 20.3 µM (active)

## COc1ccc(C(NC(=O)C(C)C)c2ccc3cccnc3c2O)cc1 (configuration not stated)
[9]
  EC50: > 180 µM (inactive)
HEK293
  IC50: 3.15 µM (active)
[10]
  EC50: 52.4 µM (active)
[11]
  EC50: 40.1 µM (active)

## O=C(Cc1ccc([N+](=O)[O-])cc1)N/N=C/c1ccc([N+](=O)[O-])o1
cells
  IC50: 13.2 µM (active)
BJ
  EC50: 18.3 µM (active)
[12]
  CC50: > 20 µM (active)
[13]
  CC50: 7.53 µM (active)
